# Measurements published in patent publication US5753673A, “Quinolinecarboxylic acid derivatives” (Taisho Pharmaceutical Co., Ltd., priority 1994, dated 1998).
# Legend:
# 5-HT1A receptor = biological target: T1, 5-HT1A receptor (Rattus norvegicus, UniProt P19327); assay: Selectivity for receptors: 5-HT1A receptor, inhibition of [^3 H] 8-OH-DPAT binding to rat cerebral cortex membrane
# T1 construct: The rat cerebral cortex was homogenized in 50 mM Tris hydrochloride buffer; from tissue; host or cells: rat cerebral cortex membranes
# T1 sequence (P19327 1-422): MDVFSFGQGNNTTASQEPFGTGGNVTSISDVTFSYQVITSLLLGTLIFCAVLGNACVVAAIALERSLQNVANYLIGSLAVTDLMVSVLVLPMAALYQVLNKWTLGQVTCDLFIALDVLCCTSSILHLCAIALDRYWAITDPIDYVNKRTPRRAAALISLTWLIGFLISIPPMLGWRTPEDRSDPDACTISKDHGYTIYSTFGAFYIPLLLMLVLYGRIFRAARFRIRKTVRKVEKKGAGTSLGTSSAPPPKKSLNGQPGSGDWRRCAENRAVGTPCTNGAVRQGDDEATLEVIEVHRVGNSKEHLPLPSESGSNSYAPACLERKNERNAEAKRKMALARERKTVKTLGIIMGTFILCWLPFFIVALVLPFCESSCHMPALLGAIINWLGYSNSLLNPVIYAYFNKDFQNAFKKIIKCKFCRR
# Protocol: The selectivity for receptors of the quinolinecarboxylic acid derivatives of the present invention was examined by the following method.
# The affinity to serotonin 1A (5-HT1A) receptor was examined by the method described in […], J. R. et al., Biochem. Pharmacol., 12, 1943-1949 (1986).
# The affinity to serotonin 1A (5-HT1A) was examined in terms of inhibition of [^3 H] 8-OH-DPAT (Daiichi Kagaku Yakuhin Co.) binding to rat cerebral cortex membrane. The rat cerebral cortex was homogenized in 50 mM Tris hydrochloride buffer (pH 7.4) followed by centrifugation at 48,000 G.
# The pellet was washed once with Tris hydrochloride buffer. Then the pellet was suspended in 50 mM Tris hydrochloride buffer (supplemented with 0.01 mM pargyline and 0.1% ascorbic acid, pH 7.7) and provided for use as the membrane preparation. The membrane specimen was reacted with 1 nM [^3 H] 8-OH-DPAT at 37° C. for 15 minutes. After the reaction, the membrane was caught by a harvester. Non-specific binding was defined as that taken in the presence of 10 μM 5-HT.
# [1] = test system: gastrointestinal motor function; conditions: TALLEY, N. J., 1992; cited from earlier work
smiles,measurement,setting,value
"COc1cc(N)c(Cl)cc1C(=O)N[C@@H]1CCN(CCCOc2ccc(F)cc2)C[C@@H]1OC (relative stereo) [Comparative Compound 1, Cisapride, reference compound]",IC50,5-HT1A receptor,64.7 nM
same,effect on gastrointestinal motor function and conditions,[1],accelerate the gastrointestinal motor function and improve the gastrointestinal conditions
COc1cc(N)c(Cl)cc1C(=O)NC1CCN2CCCC1C2 (stereo not drawn) [renzapride],effect on gastrointestinal motor function and conditions,[1],accelerate the gastrointestinal motor function and improve the gastrointestinal conditions
